Test results: patent US4076703A, “Dipeptide derivatives and their production” (Shionogi & Co., Ltd., priority 1974, dated 1978)

How the values were obtained:
DS male mice [1] = experiment: Taming activity (inhibition of electroshock-induced fighting); format: in vivo; conditions: for Taming activity ED50: administered 60 minutes prior to experiment, inhibition of fighting responses, 5 pairs of mice; for times more potent than diazepam in the taming activity: relative to diazepam (Compound No. 5)
Procedure: (§1) This test was measured on DS male mice.
These pairs of mice were selected in the morning and used for drug test in the afternoon. The test compound was administered to both mice of the pairs 60 minutes prior to the experiment. Results were obtained as the mean percentage of inhibition of fighting responses in a group of 5 pairs and shown by ED50 [Tedeschi, et al.: J. Pharmacol Exp. Thev., 125, 28-34 (1959)].

DS male mice [2] = experiment: Anti-pentylenetetrazol activity; conditions: for Anti-pentylenetetrazol activity, ED50: test compound given orally 60 minutes prior to 125 mg/kg s.c. pentylenetetrazol, complete protection against mortality, observed 2 hours; for times more potent than diazepam in the anti-pentylenetetrazol activity: relative to diazepam (Compound No. 5)
Procedure: This test was measured on a group of 10 DS male mice. […] In this test, the test compound was given orally 60 minutes prior to the administration of pentylenetetrazol. The observation was made for 2 hours after the administration of pentylenetetrazol. The criterion of anticonvulsant activity was determined as being complete protection against mortality. The convulsions were disregarded. Results were shown as ED50 [Goodman, et al.: J. Pharmacol., 108, 168 (1953)].

DS male mice [3] = experiment: Rotarod performance activity; format: in vivo; conditions: mouse falling from rod (5 rotations per minute) within less than 2 minutes
Procedure: 3. Rotarod performance activity:
as §1
The mouse was put on a scraped rod of wood, 3 cm in diameter, turning at the rate of five rotations per minute. The mice that could remain on the rod for 3 or more minutes in successive trails were selected and placed in a group of 10 mice for each dose. If the mouse fell down from the rod within less than 2 minutes, the test compound was considered to be effective. Results were shown by ED50 [Dunham, et al.: J. Am. Pharm. Assoc., 46, 208 (1957)].

DS male mice [4] = conditions: oral single dose, observed for 72 hours, Bliss method
Procedure: The test compound was orally administered to DS male mice in different single doses. For each dose, 10 mice were used, their weight ranging from 20 to 23 grams. […] The mortality was calculated by the Bliss method [Bliss: Ann.

[5] = relative to chlordiazepoxide (Compound No. 4)

Structure (SMILES)	times more potent than chlordiazepoxide in the taming activity (DS male mice [1]; [5])	times more potent than chlordiazepoxide in the anti-pentylenetetrazol activity (DS male mice [2]; [5])	Anti-pentylenetetrazol activity, ED50 (DS male mice [2])	Taming activity ED50 (DS male mice [1])	times more potent than diazepam in the taming activity (DS male mice [1])	times more potent than diazepam in the anti-pentylenetetrazol activity (DS male mice [2])	Rotarod performance ED50 (DS male mice [3])	Acute toxicity LD50 (DS male mice [4])
CN(C(=O)CNC(=O)CN)c1ccc(Cl)cc1C(=O)c1ccccc1 [Compound No. 1, 2-benzoyl-4-chloro-N-methyl-N^α -glycyl-glycinanilide]	2 to 3 times	2 to 3 times	1.0 mg/kg	–	–	–	–	–
CN(C(=O)CNC(=O)CN)c1ccc(Cl)cc1C(=O)c1ccccc1Cl.O [Compound No. 2, 2-o-chlorobenzoyl-4-chloro-N-methyl-N^α -glycyl-glycinanilide hydrate]	–	–	0.58 mg/kg	3.0 mg/kg	2 to 4 times	2 to 4 times	–	–
CN(C(=O)CNC(=O)CN)c1ccc(Cl)cc1C(=O)c1ccccc1F.Cl [Compound No. 3, 2-o-fluorobenzoyl-4-chloro-N-methyl-N^α -glycyl-glycinanilide hydrochloride]	–	–	0.33 mg/kg	1.6 mg/kg	2 to 4 times	2 to 4 times	17.0 mg/kg	> 1000 mg/kg
CNC1=Nc2ccc(Cl)cc2C(c2ccccc2)=[N+]([O-])C1 [Compound No. 4, Chlordiazepoxide]	–	–	–	–	–	–	50.0 mg/kg	–
CN1C(=O)CN=C(c2ccccc2)c2cc(Cl)ccc21 [Compound No. 5, Diazepam]	–	–	–	–	–	–	9.03 mg/kg	–
